The values that follow come from patent publication US6251894A, “1-(1,2-disubstituted piperidinyl)-4 (fused imidazole)-piperidine derivatives” (Janssen Pharmaceuticals N.V., priority 1995, dated 2001).

Where two headings read alike, the source gives them in different places.

Experiment [1] concerns Substance P Induced Relaxation of the Pig Coronary Arteries. In words: Antagonism of substance P induced relaxation of the pig coronary arteries. As to conditions: 30 min incubation. In short, it runs like this:
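Inverted pig coronary artery segments, endothelium outside, in Krebs-Henseleit at 37 °C (95/5 O2/CO2), isometric tension recorded. After prostaglandin F2α (10^-5 M) precontraction, substance P (3×10^-10 M and 10^-9 M cumulative) relaxation repeated after 30 min incubation with test compound.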

The subject of experiment [2] is Substance P Induced Plasma Extravasation. In words: Antagonism of substance P induced plasma extravasation in guinea-pigs. The experiment is classed as in vivo, guinea-pig. To be noted: Cavia porcellus, 1 hour prior to substance P. In short, it runs like this: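 Female guinea-pigs; compound or solvent given s.c. or p.o. 1 h before substance P (2 mg/kg, femoral artery) plus Evans Blue (30 mg/kg). Blue colouring of nose, forepaws, conjunctiva scored at 10 min; trachea and urinary bladder at 30 min after CO2 sacrifice. Values are lowest active doses in mg/kg.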

The mark [3] stands for this setting: test compound concentration 3 × 10^-9 (unit not given).
Where [4] appears, read: sc, 10 min, s.c., conjunctiva, read-out: lowest active dose (LAD), conjunctiva.
Where [5] appears, read: sc, 10 min, s.c., forepaws, read-out: lowest active dose (LAD), forepaws.
Where [6] appears, read: sc, 10 min, s.c., nose, read-out: lowest active dose (LAD), nose.
[7] abbreviates: sc, 0.5 h, s.c., trachea, read-out: lowest active dose (LAD), trachea.
Setting [8] is: sc, 0.5 h, s.c., urinary bladder, read-out: lowest active dose (LAD), urinary bladder.
[9] abbreviates: po, 10 min, p.o., conjunctiva, read-out: lowest active dose (LAD), conjunctiva.
Setting [10] is: po, 10 min, p.o., forepaws, read-out: lowest active dose (LAD), forepaws.
The mark [11] stands for this setting: po, 10 min, p.o., nose, read-out: lowest active dose (LAD), nose.
[12] abbreviates: po, 0.5 h, p.o., trachea, read-out: lowest active dose (LAD), trachea.
Where [13] appears, read: po, 0.5 h, p.o., urinary bladder, read-out: lowest active dose (LAD), urinary bladder.

With `O=C(c1cc(C(F)(F)F)cc(C(F)(F)F)c1)N1CC[C@H](N2CCC(=C3c4ccccc4CCn4c3nc(CO)c4CO)CC2)C[C@@H]1Cc1ccccc1` (relative stereo) [Compound 52], the “% inhibition of the response to 10^-9 M substance P” value in experiment [1] (setting [3]) amounted to 77.8%. Besides, the minimal effective dose was determined as 2.5 mg/kg in experiment [2] (setting [4]); 2.5 mg/kg in experiment [2] (setting [5]); 2.5 mg/kg in experiment [2] (setting [6]); 10 mg/kg in experiment [2] (setting [7]); 2.5 mg/kg in experiment [2] (setting [8]).
Turning to `O=Cc1cnc2n1CCc1ccccc1C2=C1CCN([C@@H]2CCN(C(=O)c3cc(C(F)(F)F)cc(C(F)(F)F)c3)[C@@H](Cc3ccccc3)C2)CC1` (relative stereo) [Compound 16], the “% inhibition of the response to 10^-9 M substance P” value in experiment [1] (setting [3]) is given as 98.9%. Moreover, the minimal effective dose came out at 2.5 mg/kg in experiment [2] (setting [4]); 2.5 mg/kg in experiment [2] (setting [5]); 2.5 mg/kg in experiment [2] (setting [6]); 10 mg/kg in experiment [2] (setting [7]); 10 mg/kg in experiment [2] (setting [8]).
As to `COC(=O)c1cnc2n1CCc1ccccc1C2=C1CCN([C@H]2CCN(C(=O)c3cc(C(F)(F)F)cc(C(F)(F)F)c3)[C@@H](Cc3ccccc3)C2)CC1` (racemic) [Compound 17, (±)-methyl cis-11-[1-[1-[3,5-bis(trifluoromethyl)benzoyl]-2-(phenylmethyl)-4-piperidinyl]-4-piperidinylidene]-6,11-dihydro-5H-imidazo[2,1-b][3]benzazepine-3-carboxylate], in experiment [1] (setting [3]), the “% inhibition of the response to 10^-9 M substance P” value was 35.3%. For the same compound, the minimal effective dose in experiment [2] (setting [9]), in experiment [2] (setting [10]), in experiment [2] (setting [11]), in experiment [2] (setting [12]) and in experiment [2] (setting [13]) was 10 mg/kg each time.
For the compound `O=C1Cn2ccnc2C(=C2CCN([C@@H]3CCN(C(=O)c4cc(C(F)(F)F)cc(C(F)(F)F)c4)[C@@H](Cc4ccccc4)C3)CC2)c2ccsc21` (relative stereo) [Compound 107], the “% inhibition of the response to 10^-9 M substance P” value in experiment [1] (setting [3]) came to 96.3%. The minimal effective dose in experiment [2] (setting [9]), in experiment [2] (setting [10]), in experiment [2] (setting [11]), in experiment [2] (setting [12]) and in experiment [2] (setting [13]) was 10 mg/kg in each case.
For `Cc1cnc2n1CCc1ccccc1C2=C1CCN([C@H]2CCN(C(=O)c3cc(C(F)(F)F)cc(C(F)(F)F)c3)[C@@H](Cc3ccccc3)C2)CC1` (relative stereo) [Compound 53], the “% inhibition of the response to 10^-9 M substance P” value in experiment [1] (setting [3]) is on record as 44.4%. In addition, the minimal effective dose in experiment [2] (setting [4]), in experiment [2] (setting [5]), in experiment [2] (setting [6]), in experiment [2] (setting [7]) and in experiment [2] (setting [8]) was 10 mg/kg each time.
`O=C(c1cc(C(F)(F)F)cc(C(F)(F)F)c1)N1CC[C@@H](N2CCC(=C3c4ccsc4CCn4ccnc43)CC2)C[C@H]1Cc1ccccc1` (relative stereo) [Compound 18]: the “% inhibition of the response to 10^-9 M substance P” value in experiment [1] (setting [3]) is 39.8%. For the same compound, the minimal effective dose amounted to 2.5 mg/kg in experiment [2] (setting [4]); 10 mg/kg in experiment [2] (setting [5]); 10 mg/kg in experiment [2] (setting [6]); 10 mg/kg in experiment [2] (setting [7]); 10 mg/kg in experiment [2] (setting [8]).
On to `Cc1cc(C)cc(C(=O)N2CC[C@H](N3CCC(=C4c5ccsc5C(=O)Cn5ccnc54)CC3)C[C@@H]2Cc2ccccc2)c1` (relative stereo) [Compound 111], for which the “% inhibition of the response to 10^-9 M substance P” value in experiment [1] (setting [3]) is 22.6%. Further, the minimal effective dose in experiment [2] (setting [4]), in experiment [2] (setting [5]), in experiment [2] (setting [6]), in experiment [2] (setting [7]) and in experiment [2] (setting [8]) was 10 mg/kg throughout.
Turning to `O=C(c1cc(C(F)(F)F)cc(C(F)(F)F)c1)N1CC[C@@H](N2CCC(=C3c4ccccc4OCn4ccnc43)CC2)C[C@@H]1Cc1ccccc1` (relative stereo) [Compound 114], the “% inhibition of the response to 10^-9 M substance P” value in experiment [1] (setting [3]) is recorded as 100.0%. Also, the minimal effective dose stood at 2.5 mg/kg in experiment [2] (setting [4]); 10 mg/kg in experiment [2] (setting [5]); 2.5 mg/kg in experiment [2] (setting [6]); 10 mg/kg in experiment [2] (setting [7]); 10 mg/kg in experiment [2] (setting [8]).
Take `Cc1cc(C)cc(C(=O)N2CC[C@H](N3CCC(=C4c5sccc5CCn5ccnc54)CC3)C[C@H]2Cc2ccccc2)c1` (relative stereo) [Compound 37]: the “% inhibition of the response to 10^-9 M substance P” value in experiment [1] (setting [3]) is on record as 81.9%. For the same compound, the minimal effective dose in experiment [2] (setting [4]) was 2.5 mg/kg; in experiment [2] (setting [5]) it was 2.5 mg/kg; in experiment [2] (setting [6]) it was 2.5 mg/kg; in experiment [2] (setting [7]), 10 mg/kg; in experiment [2] (setting [8]) it was 10 mg/kg.
As to `O=Cc1cnc2n1CCc1ccccc1C2=C1CCN([C@H]2CCN(C(=O)c3cc(C(F)(F)F)cc(C(F)(F)F)c3)[C@@H](Cc3ccccc3)C2)CC1` (racemic) [Compound 11, (±)-cis-1-[3,5-bis(trifluoromethyl)benzoyl]-4-[4-(3-formyl-5,6-dihydro-11H-imidazo[2,1-b][3]benzazepin-11-ylidene)-1-piperidinyl]-2-(phenylmethyl)piperidine], the “% inhibition of the response to 10^-9 M substance P” value in experiment [1] (setting [3]) was 96.1%. Moreover, the minimal effective dose in experiment [2] (setting [9]), in experiment [2] (setting [10]), in experiment [2] (setting [11]), in experiment [2] (setting [12]) and in experiment [2] (setting [13]) was 10 mg/kg each time.
Consider `Cc1cc(C)cc(C(=O)N2CC[C@H](N3CCC(=C4c5ccccc5CCn5ccnc54)CC3)C[C@H]2Cc2ccccc2)c1` (relative stereo) [Compound 41], for which the “% inhibition of the response to 10^-9 M substance P” value in experiment [1] (setting [3]) stood at 40.6%. The minimal effective dose in experiment [2] (setting [4]) came out at 2.5 mg/kg; in experiment [2] (setting [5]), 10 mg/kg; in experiment [2] (setting [6]), 10 mg/kg; in experiment [2] (setting [7]) it was 10 mg/kg; in experiment [2] (setting [8]), 10 mg/kg.
`Cc1cc(C)cc(C(=O)N2CC[C@H](N3CCC(=C4c5ccccc5CCn5ccnc54)CC3)C[C@@H]2Cc2ccccc2)c1` (racemic) [Compound 1, (±)-cis-4-[4-(5,6-dihydro-11H-imidazo [2,1-b][3]benzazepin-11-ylidene)-1-piperidinyl]-1-(3,5-dimethylbenzoyl)-2-(phenylmethyl)piperidine]: the “% inhibition of the response to 10^-9 M substance P” value in experiment [1] (test compound concentration 3 × 10^-8 (unit not given)) is 52.3%. Also, the minimal effective dose in experiment [2] (setting [4]), in experiment [2] (setting [5]), in experiment [2] (setting [6]), in experiment [2] (setting [7]) and in experiment [2] (setting [8]) was 10 mg/kg throughout.
As for `O=C(c1cc(C(F)(F)F)cc(C(F)(F)F)c1)N1CC[C@@H](N2CCC(C3c4ccccc4Cn4c3nc3ccccc34)CC2)C[C@H]1Cc1ccccc1` (mixture of isomers) [Compound 14, (±)-cis-1-[3,5-bis(trifluoromethyl)benzoyl]-4-[4-(6,11-dihydrobenzimidazo[1,2-b]isoquinolin-6-yl)-1-piperidinyl]-2-phenylmethyl)piperidine], the “% inhibition of the response to 10^-9 M substance P” value in experiment [1] (setting [3]) is 56.6%. Besides, the minimal effective dose in experiment [2] (setting [9]), in experiment [2] (setting [10]), in experiment [2] (setting [11]), in experiment [2] (setting [12]) and in experiment [2] (setting [13]) was 10 mg/kg in each case.
Turning to `O=C(c1cc(C(F)(F)F)cc(C(F)(F)F)c1)N1CC[C@@H](N2CCC(=C3c4sccc4CCn4ccnc43)CC2)C[C@@H]1Cc1ccccc1` (relative stereo) [Compound 7], in experiment [1] (setting [3]), the “% inhibition of the response to 10^-9 M substance P” value worked out at 83.1%. For the same compound, the minimal effective dose is 2.5 mg/kg in experiment [2] (setting [4]); 10 mg/kg in experiment [2] (setting [5]); 2.5 mg/kg in experiment [2] (setting [6]); 10 mg/kg in experiment [2] (setting [7]); 10 mg/kg in experiment [2] (setting [8]).
Consider `Cc1cc(C)cc(C(=O)N2CC[C@H](N3CCC(=C4c5ccsc5CCn5ccnc54)CC3)C[C@H]2Cc2ccccc2)c1` (relative stereo) [Compound 39], for which the “% inhibition of the response to 10^-9 M substance P” value in experiment [1] (setting [3]) came out at 42.9%. For the same compound, the minimal effective dose was found to be 2.5 mg/kg in experiment [2] (setting [4]); 2.5 mg/kg in experiment [2] (setting [5]); 2.5 mg/kg in experiment [2] (setting [6]); 10 mg/kg in experiment [2] (setting [7]); 10 mg/kg in experiment [2] (setting [8]).
Take `O=C(c1cc(C(F)(F)F)cc(C(F)(F)F)c1)N1CC[C@@H](N2CCC(=C3c4ccccc4CCn4ccnc43)CC2)C[C@@H]1Cc1ccccc1` (relative stereo) [Compound 22]: the “% inhibition of the response to 10^-9 M substance P” value in experiment [1] (setting [3]) is reported as 83.2%. Also, the minimal effective dose in experiment [2] (setting [4]), in experiment [2] (setting [5]), in experiment [2] (setting [6]), in experiment [2] (setting [7]) and in experiment [2] (setting [8]) was 10 mg/kg in each case.
